Data as given in patent publication US11597737B2, “Small molecule inhibitors selective for polo-like kinase proteins” (UNIVERSITY OF SOUTH CAROLINA, priority 2016, dated 2023).
Where two headings read alike, the source gives them in different places. Each block holds one molecule with its values, some of them ahead of it.

How the values were obtained:
[1] = system: mutant (C67V) PLK1 RPE cells; experiment: Cell viability assay, PLK1 C67V mutant RPE cells; type: cell-based; conditions: FIG. 6-8
Description: (§1) Retinal Pigment Epithelial (RPE) cells were maintained in 1:1 DMEM/Hams F-12 (Invitrogen™, Carlsebad, Calif.; Corning® Cellgro, Manassas, Va.), and supplemented with 10% FBS or Corning® Nu-Serum™ (BD™ Biosciences, Franklin Lakes, N.J.) and 1% penicillin/streptomycin (Invitrogen™) in a humidified incubator and 5% C02 at 37° C.
(§2) Exponentially growing cells were plated in 96-well dishes. Dose response curves were used to treat cells for 72 hours with inhibitors. Following the three-day treatment, cell viability was measured using the MTT (3-(4,5-dimethylthiazol-2-yl)-2,5-diphenyltetrazolium bromide) colorimetric assay. Cells were incubated for 3 hours with MTT allowing viable cells to metabolize the tetrazolium dye to a purple colored solution.

PC3 cells = experiment: Cell cycle analysis and BrdU pulse labeling in PC3 cells, FIG. 9-11; type: cell-based
Description: Analysis of Cell Cycle Progression by FACS
Serum-Starved Synchronization
Cells were synchronized in G1 by serum starvation. Briefly, exponentially growing cells were plated overnight. Media (DMEM, 10% FBS, 1% Pen. Strep.) was then removed and replaced with media containing no FBS. Cells were starved for 72 hours then treated for 24 hours with inhibitor. Following treatment, cells were harvested and processed for endpoint experimental analysis.
Ethanol fixative was removed by centrifugation and the cells were washed with 1 mL ice-cold PBS/1% BSA. Cells were denatured by resuspending in 0.2 mg/mL pepsin in 2N HCl and incubated in 37° C. water bath for 15 minutes. Hydrolysis was then terminated by adding 1 M Invitrogen™ Novex® Tris-Glycine. Cells were then washed with PBS/1% BSA then the primary anti-BrdU antibody (1:100 dilution in TBFP; 0.5% Tween-20, 1% BSA, 1% FBS, PBS) was added and cells were incubated for 25 minutes in the dark, at room temperature. […] Cells were washed once more with PBS/1% BSA and re-suspended in DAPI for 30 minutes before being analyzed by flow cytometry.
The PLK1 PBD-inhibitors were analyzed further by cell cycle analysis in PC3 cells (FIG. 9). […] To quantify the percentage of cells actively proliferating (synthesizing their DNA) or arrested Bromodeoxyuridine (BrdU) pulse labeling was carried out and analyzed by flow cytometry.

PLK1 PBD (367-603) = target: T1, PLK1 PBD (367-603) (Homo sapiens, UniProt P53350); experiment: Fluorescence polarization assay, PLK1 PBD; type: binding
T1 construct: PLK1 PBD (367-603); purchased BPS Biosciences Inc. (San Diego, Calif.)
T1 sequence (P53350 367-603): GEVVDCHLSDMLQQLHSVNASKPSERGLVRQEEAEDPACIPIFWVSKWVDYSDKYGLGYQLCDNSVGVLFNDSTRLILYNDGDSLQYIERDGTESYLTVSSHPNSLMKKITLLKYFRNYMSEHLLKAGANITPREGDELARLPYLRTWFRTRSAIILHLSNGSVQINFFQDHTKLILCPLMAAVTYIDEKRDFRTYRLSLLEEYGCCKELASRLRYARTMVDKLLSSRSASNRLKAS
Description: (§3) Fluorescence Polarization Assay
(§4) Materials were dissolved in DMSO (10 mM) and diluted from 10 nM to 600 μM (maximum of 6% DMSO tolerance in the assay). […] Incubation was carried out at room temperature for 45 minutes. Fluorescence was measured using a DTX 880 plate reader and Multimode Analysis software (Beckman Coulter, Brea, Calif.). […] Each data point was performed in triplicate for every experiment, and experiments were performed at least three times. An IC50 value for each compound was calculated from linear regression analysis of the plots.

PLK3 PBD (335-646) = target: T2, PLK3 PBD (335-646) (Homo sapiens, UniProt Q9H4B4); experiment: Fluorescence polarization assay, PLK3 PBD; conditions: PLK3 PBD binding
T2 construct: PLK3 PBD (335-646); purchased BPS Biosciences Inc. (San Diego, Calif.)
T2 sequence (Q9H4B4 335-646): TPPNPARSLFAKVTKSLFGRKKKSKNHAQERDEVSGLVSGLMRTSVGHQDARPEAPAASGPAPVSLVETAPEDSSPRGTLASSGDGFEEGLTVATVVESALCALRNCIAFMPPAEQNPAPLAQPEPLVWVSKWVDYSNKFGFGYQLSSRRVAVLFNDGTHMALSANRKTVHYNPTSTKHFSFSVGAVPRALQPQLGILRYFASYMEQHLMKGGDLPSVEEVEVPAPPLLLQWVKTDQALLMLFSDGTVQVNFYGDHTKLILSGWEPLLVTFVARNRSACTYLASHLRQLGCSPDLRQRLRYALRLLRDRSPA
Description: as §3, §4

[2] = system: KRAS mutant lung cancer (A-549) cells; experiment: Cell viability assay (MTT), A-549; type: cell-based
Description: A-549 lung cancer cells were maintained in Hams F-12 1× with glutamine (Corning® Cellgro, Manassas, Va.), and supplemented with 10% FBS or Corning® Nu-Serum™ (BD™ Biosciences, Franklin Lakes, N.J.) and 1% penicillin/streptomycin (Invitrogen™) in a humidified incubator and 5% C02 at 37° C.
as §2, with “solution. Absorbance measurements (595 nm) were quantified using a DTX 880 plate reader and IC50 values were generated for FLIPs.” for “solution.”

[3] = system: HCT-116 (p53−/−) colon cancer cells; experiment: Cell viability assay (MTT), HCT116 p53-/-; type: cell-based
Description: HCT-116 (p53+/+ and −/−) colon cancer cells were maintained DMEM (Invitrogen™, Carlsebad, Calif.) supplemented with 10% FBS or Nu-serum (BD™ Biosciences, Franklin Lakes, N.J.) and 1% penicillin/streptomycin (Invitrogen™) in a humidified incubator and 5% C02 at 37° C.
as §2, with “solution. Absorbance measurements (595 nm) were quantified using a DTX 880 plate reader and IC50 values were generated for FLIPs.” for “solution.”

[4] = system: WT Retinal Pigment Epithelial (RPE) cells; experiment: Cell viability assay, WT RPE cells; type: cell-based; conditions: FIG. 7, FIG. 8
Description: as §1, §2

[5] = system: HeLa cervical cancer cells; experiment: Cell viability assay (MTT), HeLa; type: cell-based; conditions: Homo sapiens, HeLa, 72 h, read-out: HeLa
Description: HeLa cervical cancer cells were obtained from ATCC (Manassas, Va.). […] Cells were maintained in DMEM (Invitrogen™, Carlsebad, Calif.) supplemented with 10% FBS or Corning© Nu-Serum™ (BD™ Biosciences, Franklin Lakes, N.J.) and 1% penicillin/streptomycin (Invitrogen™) in a humidified incubator and 5% CO2 at 37° C.
as §2

[6] = system: PTEN deficient prostate cancer (PC3) cells; experiment: Cell viability assay (MTT), PC3; type: cell-based; conditions: read-out: PCC-3
Description: PC3 prostate cancer cells were maintained in DMEM (Invitrogen™, Carlsebad, Calif.) supplemented with 10% FBS or Corning® Nu-Serum™ (BD™ Biosciences, Franklin Lakes, N.J.) and 1% penicillin/streptomycin (Invitrogen™) in a humidified incubator and 5% C02 at 37° C.
as §2

[7] = Cell cycle analysis and caspase apoptosis assay; type: cell-based
Description: Disclosed small molecule inhibitors can also encourage apoptosis.

full length PLK1 = target: T3, full length PLK1 (Homo sapiens, UniProt P53350); experiment: PLK1 kinase inhibition assay (CycLex ELISA); type: biochemical; conditions: 7.5 μM ATP, read-out: PLK1 Kinase Inhibitory Act. IC50
T3 construct: This ELISA assay measures the catalytic activity of full length PLK1 for a defined substrate
T3 sequence (P53350 whole entry): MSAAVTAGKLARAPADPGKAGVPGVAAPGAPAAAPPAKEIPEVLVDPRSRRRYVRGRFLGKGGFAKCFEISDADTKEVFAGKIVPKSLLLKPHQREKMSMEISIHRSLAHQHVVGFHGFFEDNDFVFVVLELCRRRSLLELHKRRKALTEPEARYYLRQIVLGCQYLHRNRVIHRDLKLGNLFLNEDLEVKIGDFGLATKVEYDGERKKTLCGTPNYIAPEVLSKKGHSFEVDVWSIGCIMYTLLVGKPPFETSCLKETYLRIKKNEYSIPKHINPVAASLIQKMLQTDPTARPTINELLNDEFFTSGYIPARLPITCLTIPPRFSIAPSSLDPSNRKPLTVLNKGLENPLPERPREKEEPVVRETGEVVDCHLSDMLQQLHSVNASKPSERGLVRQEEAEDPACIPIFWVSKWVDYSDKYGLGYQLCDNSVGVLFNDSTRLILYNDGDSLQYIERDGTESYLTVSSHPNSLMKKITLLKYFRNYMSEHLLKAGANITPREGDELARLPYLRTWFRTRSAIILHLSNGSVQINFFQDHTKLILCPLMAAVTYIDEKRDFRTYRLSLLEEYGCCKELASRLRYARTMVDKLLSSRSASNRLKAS
Description: PLK1 Kinase Inhibition Assay
The CycLex® Polo-like Kinase 1 Assay/Inhibitor Screening Kit was used to measure catalytic inhibition (MBL Life Science, Nagano, Japan). This ELISA assay measures the catalytic activity of full length PLK1 for a defined substrate, which is detected by an anti-phospho-threonine antibody (PPT-07) and peroxidase coupled secondary antibody. […] Peroxidase catalyzes the conversion of the colorless solution to yellow, which was quantified using a DTX 880 plate reader. Absorbance measurements (450 nm) were plotted to calculate activity in each sample, and % inhibition was calculated in the wells relative to activity in the absence of inhibitor.

[8] = PLK1 PBD binding, fluorescence polarization, read-out: PLK1 IC50
[9] = Table 1, fluorescence polarization, read-out: PLK1 PBD IC50

Compound: CC[C@@H]1C(=O)N(C)c2cnc(Nc3ccc(C(=O)NC4CCN(C)CC4)cc3OC)nc2N1C1CCCC1 [BI-2536, reference compound]
sensitivity of cells containing mutant (C67V) PLK1 (in words) [1]: resistant
cells accumulate in G2/M (PC3 cells; concentration not given): ~80%

Compound: CCCCc1ccc(C(=O)Nc2ccc(C(=O)O)cc2)cc1 [SCCP ID No. 5880]
IC50 (PLK1 PBD (367-603); [8]): > 600 µM
binding to the PLK1 PBD (in words) (PLK1 PBD (367-603); fluorescence polarization): did not bind

Compound: CCCCCCc1ccc(C(=O)Nc2ccccc2C(=O)O)cc1 [SCCP ID No. 5881]
binding to the PLK1 PBD (in words) (PLK1 PBD (367-603); fluorescence polarization): low micromolar activity

Compound: CCCCCc1ccc(C(=O)Nc2ccccc2C(=O)O)cc1 [SCCP ID No. 5905]
IC50 (PLK1 PBD (367-603); [8]): 224 ± 4.88 µM

Compound: CCCCCCCCc1ccc(C(=O)Nc2ccccc2C(=O)O)cc1 [SCCP ID No. 5912]
PLK1 versus PLK3 specificity (in words) (PLK1 PBD (367-603); PBD binding): relatively equipotent for PLK1 and PLK3 PBD binding
IC50 ([2]; Homo sapiens, A549, 72 hours): 2.8 ± 0.1 µM
IC50 ([3]; Homo sapiens, HCT-116, 72 hours): 8 ± 1.7 µM
sensitivity of cells containing wild type PLK1 (in words) [4]: sensitive
sensitivity of cells containing mutant (C67V) PLK1 (in words) [1]: sensitive
cell cycle phenotype (in words) (PC3 cells; 15 μM): S phase delay

Compound: CCCCCCCCc1ccc(C(=O)Nc2ccccc2C(=O)OCC)cc1 [SCCP ID No. 5914]
IC50 (PLK1 PBD (367-603); [8]): > 600 µM
IC50 [5]: > 100 µM
IC50 ([6]; Homo sapiens, PC-3, 72 h): > 100 µM
levels of apoptosis (in words) [7]: virtually none

The next lines start with results.

IC50 (PLK1 PBD (367-603); [8]): 130 ± 3.6 µM
Selectivity Fold Index (PLK1 PBD (367-603); fold selectivity for PLK1 versus PLK3 PBD): 1.6
IC50 (PLK3 PBD (335-646)): 43.6 ± 1.69 µM
Compound: CCCCCCc1ccc(C(=O)Nc2cccc(C(=O)O)c2)cc1 [SCCP ID No. 5903]

IC50 (PLK1 PBD (367-603); [9]): > 600 µM
Compound: CCCCCCc1ccc(C(=O)Nc2ncccc2C(=O)O)cc1 [SCCP ID No. 5904]

IC50 (PLK1 PBD (367-603); [8]): > 600 µM
binding to the PLK1 PBD (in words) (PLK1 PBD (367-603); fluorescence polarization): No binding was observed
Compound: CCCCCCc1ccc(C(=O)Nc2cccc(S(N)(=O)=O)c2)cc1 [SCCP ID No. 5908]

IC50 (PLK1 PBD (367-603); [9]): 105 µM
Compound: CCCCCCCCc1ccc(C(=O)NCc2ccccc2C(=O)O)cc1 [SCCP ID No. 5913]

IC50 (PLK1 PBD (367-603); [8]): > 600 µM
binding to the PLK1 PBD (in words) (PLK1 PBD (367-603); fluorescence polarization): no binding to PLK1
IC50 (PLK3 PBD (335-646)): 24.5 µM
Compound: CCCCCCc1ccc(C(=O)Nc2ccc(C)cc2C(=O)O)cc1 [SCCP ID No. 5924]

IC50 (PLK1 PBD (367-603); [8]): 11.1 ± 1.1 µM
IC50 (full length PLK1): 48.9 µM
IC50 ([6]; MTT, 72 hours): 11.6 ± 1.2 µM
IC50 ([2]; 72 hours): 2.9 ± 0.5 µM
IC50 ([3]; 72 hours): 10 ± 2.4 µM
Compound: CCCCCCCCc1ccc(C(=O)Nc2cccc(F)c2C(=O)O)cc1 [SCCP ID No. 5932]
sensitivity of cells containing wild type PLK1 (in words) [4]: sensitive
sensitivity of cells containing mutant (C67V) PLK1 (in words) [1]: sensitive
